Assay in all cases: NCI tumour cell line growth inhibition, 48 h
Assay [1] deals with SK-MEL-28 melanoma.
Assay [2] deals with SF-539 CNS.
Assay [3] relates to SNB-78 CNS.
In assay [4] the test system is A498 renal.
Assay [5] relates to DLD-1 colon.
Assay [6] relates to MALME-3M melanoma.
In assay [7] the test system is 786-0 renal.
In assay [8] the test system is SF-295 CNS.
In assay [9] the test system is SK-MEL-2 melanoma.
For assay [10], the system named is SF-268 CNS.

Several values for one entry are separate records, joined by “and”; a condition that tells them apart may be missing. Equal entries are not always repeated.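 48-hour exposure; five concentrations; linearly interpolated endpoints. At the GI50, growth is halved. TGI marks complete inhibition of growth.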

Drawing on PubChem BioAssay (NCI), this text covers TGI and GI50 for 27 molecules.

Turning to `Cc1ccccc1NC(=O)/C(=N\NC(N)=S)C(C#N)c1ccccc1` (stereo not drawn), the TGI in [1], in assay [2], in assay [3], in assay [4], in [5] and in [6] was greater than 100 µM each time. Also, the TGI in assay [7], in [8], in assay [9] and in assay [10] was greater than 100 µM each time.
Consider `COC(=O)c1c(O)ccc(O)c1C(C(C)=O)C(C)=O`, for which the TGI in assay [1], in assay [2], in assay [3], in [4], in assay [5] and in [6] was greater than 100 µM in each case. The TGI in [7], in [8], in assay [9] and in [10] was greater than 100 µM in each case.
`CN(c1ccccc1)c1cc2ccccc2nn1`: the TGI in assay [1], in [2], in assay [3], in [4], in [5] and in assay [6] was greater than 100 µM in each case. The TGI in assay [7], in assay [8], in [9] and in assay [10] was greater than 100 µM throughout.
Turning to `O=C(NC1CC1)c1c(O)[nH]c(=S)[nH]c1=O`, the TGI in [1], in assay [2], in assay [3], in assay [4], in assay [5] and in [6] was greater than 100 µM throughout. Besides, the TGI in [7], in assay [8], in assay [9] and in assay [10] was greater than 100 µM in each case.
Regarding `COc1cccc2c1C(=O)c1c(O)c3c(c(O)c1C2=O)C[C@@](O)(C(=O)CO)CC3OC1CC(N)C(OC2CCCCO2)C(C)O1` (stereo partly drawn), the GI50 is 0.113 µM in [1]; 0.00352 µM in assay [2]; 0.00377 µM in assay [6]; 0.0131 µM in assay [7]; 0.00963 µM in assay [8]; 0.00705 µM in assay [10]. Besides, the TGI in assay [3] is 26.5 µM; in assay [4], 1.16 µM; in assay [5], 17.8 µM; in [8], 1.13 µM and 2.44 µM; in assay [9] it was 4.1 µM.
Regarding `O=C(O)c1ccc2c(c1)C(=O)N(c1ccc(S(=O)(=O)c3ccc(N4C(=O)c5ccc(C(=O)O)cc5C4=O)cc3)cc1)C2=O`, the TGI in [1], in [2], in [3], in assay [4], in assay [6] and in assay [7] was greater than 100 µM each time. The TGI in [8], in assay [9] and in assay [10] was greater than 100 µM each time.
For the molecule `CC1(C)c2ccccc2N2C(c3ccccc3)=NOC21C` (stereo not drawn), the TGI in [1], in assay [2], in assay [3], in assay [4], in assay [5] and in [6] was greater than 100 µM in each case. The TGI in [7], in [8], in [9] and in [10] was greater than 100 µM each time.
As to `C[P+]1(Cc2ccccc2)CCCC1`, the TGI in assay [1], in assay [2], in [3], in assay [4], in assay [5] and in assay [6] was greater than 100 µM in each case. The TGI in assay [7], in [8] and in assay [9] was greater than 100 µM each time.
For the molecule `CC1OC(n2cc(C(F)(F)F)c(=O)[nH]c2=O)C=CC1=O` (stereo not drawn), the TGI in assay [1] is 38.2 µM; in [2] it was 35.2 µM; in [3], 31.5 µM; in [5] it was 38.2 µM; in [6], 34.2 µM; in assay [7] it was 33.1 µM. The values for the TGI in [8], in assay [9] and in assay [10] were 81.5 µM, 34.6 µM and greater than 100 µM, respectively.
For the molecule `CCOC(=O)C1=C(C)NC(=O)NC1c1ccc(OC)cc1OC` (stereo not drawn), the TGI in [3], in assay [4], in [5], in assay [6], in assay [7] and in assay [8] was greater than 100 µM each time. Moreover, the TGI in assay [9] and in assay [10] was greater than 100 µM each time.
For `CC(=O)OCC1OC(n2cccnc2=O)C(OC(C)=O)C1OC(C)=O` (stereo not drawn), the TGI in assay [1], in [3], in assay [4], in assay [5], in assay [6] and in [7] was greater than 100 µM throughout. The TGI in assay [9] and in assay [10] was greater than 100 µM each time.
Turning to `CN(C)NC1=C([N+](=O)[O-])C=NN(c2ccccc2)C1`, the TGI in assay [1] was found to be 3.21 µM; in [2] it was 3.31 µM; in assay [3] it was 4.3 µM; in assay [4] it was 36 µM; in [5], 3.6 µM; in assay [6] it was 3.63 µM. Besides, the TGI amounted to 3.24 µM in [7], 3.2 µM in [8], 3.21 µM in [9] and 3.51 µM in assay [10].
For the molecule `N#C/C(=C\c1c(O)cc(O)cc1O)C(N)=O`, the TGI in assay [1], in assay [2], in assay [3], in [4], in assay [5] and in [6] was greater than 100 µM each time. The TGI in assay [7], in [8], in assay [9] and in assay [10] was greater than 100 µM throughout.
As to `Cn1[nH]cc2ccc3nc4ccccc4c(=O)c3c21`, the TGI in assay [1] was greater than 88.5 µM; in assay [3], greater than 83.9 µM; in assay [4], 67.7 µM; in [5], greater than 100 µM; in assay [6] it was 68.7 µM; in [7], greater than 100 µM. The TGI was greater than 96.3 µM in assay [8], greater than 100 µM in [9] and greater than 100 µM in [10].
Consider `CC1(C)C(=O)OC(n2cc(F)c(=O)[nH]c2=O)C1=O` (stereo not drawn), for which the TGI in [1], in [2], in [3], in assay [4], in assay [5] and in assay [6] was greater than 100 µM each time. Besides, the TGI in [7], in [8], in assay [9] and in assay [10] was greater than 100 µM throughout.
Turning to `Brc1ccccc2cc(-c3ccccc3)nc1-2`, the TGI in assay [1] amounted to 29.8 µM; in assay [2], 17.7 µM; in assay [3], 6.91 µM; in [4], 42.7 µM; in assay [5] it was 3.74 µM; in assay [6], 20.4 µM. For the same molecule, the TGI in [7] was found to be 10.8 µM; in assay [8] it was 48.9 µM; in assay [9], 18.6 µM; in [10], 28.7 µM.
For the molecule `Cc1ccccc1NC(=O)Cc1nc2ccccc2s1`, the TGI is 32.9 µM in assay [1]; 34.7 µM in assay [2]; 32.6 µM in assay [3]; 35.7 µM in assay [4]; greater than 100 µM in assay [5]; 30 µM in assay [6]. Besides, the TGI in assay [7] turned out to be 31.6 µM; in assay [8], 29.2 µM; in assay [9], 29.9 µM; in assay [10], 33 µM.
Turning to `CC(=O)[CH-]C(=O)c1ccccc1.CC(=O)[CH-]C(=O)c1ccccc1.Cl.[O-]c1ccnc2ccccc12.[O-]c1ccnc2ccccc12.[Ti+4]`, the GI50 in assay [1], in assay [2], in assay [4], in assay [5], in assay [6] and in assay [7] was greater than 100 µM throughout. The GI50 in assay [8], in assay [9] and in assay [10] was greater than 100 µM each time. The TGI in assay [1], in assay [2], in [4], in assay [5], in assay [6] and in assay [7] was greater than 100 µM throughout. Also, the TGI in [8], in assay [9] and in assay [10] was greater than 100 µM throughout.
`CCOC(=O)C1=C(OC(OCC)C([Se]c2ccccc2)C(C)C)CCC1` (stereo not drawn): the TGI in assay [1] is 39.4 µM; in assay [2] it was 30.8 µM; in assay [3], 38.8 µM; in [4] it was greater than 100 µM; in assay [5] it was 33.8 µM; in [6], 81.9 µM. The TGI in [7] was 20.6 µM; in assay [8], 44.5 µM; in assay [9], 62 µM; in assay [10], 20 µM.
With `CNC(=O)ON(C(C)=O)C(=O)NC`, the TGI in [1] came out at 159 µM; in assay [2], 145 µM; in [3], 384 µM; in assay [4], 211 µM; in [5] it was 326 µM; in [6], 129 µM. The TGI in assay [7] was found to be 34.4 µM; in assay [8], 267 µM; in assay [9] it was 98.5 µM; in assay [10], 323 µM. In addition, the figures for the GI50 in assay [6], in [7] and in assay [9] were greater than 78.6 µM, greater than 93.8 µM and 38.3 µM, respectively.
Regarding `COC(=O)C1=CC2C(=O)OC1C1C(=O)NC(=O)C21` (stereo not drawn), the TGI in [1], in assay [2], in assay [3], in assay [4], in assay [5] and in [6] was greater than 100 µM each time. The TGI in assay [7], in [8] and in [10] was greater than 100 µM each time.
In the case of `O=C(/C=C/c1ccc(Cl)c(Cl)c1)c1ccccc1Cl`, the TGI stood at 22.5 µM in [1]; 12.2 µM in assay [2]; 32.3 µM in assay [3]; 31.4 µM in assay [4]; 10.4 µM in assay [5]; 30.5 µM in [6]. The TGI in assay [7] turned out to be 10.8 µM; in assay [8] it was 26.9 µM; in [10], 13.9 µM.
Regarding `N#C/C(=C\c1cc(O)c(O)c(O)c1)C(N)=O`, the TGI in assay [1], in [2], in assay [3], in [4], in assay [5] and in assay [6] was greater than 100 µM each time. Further, the TGI in assay [7], in assay [8], in [9] and in [10] was greater than 100 µM throughout.
With `O=c1nc2sc3ccccc3c(=O)n2[nH]1`, the TGI in assay [1], in assay [2], in [3], in assay [5], in assay [6] and in assay [7] was greater than 100 µM throughout. In addition, the TGI in [8], in [9] and in [10] was greater than 100 µM in each case.
Regarding `C=C1C(=O)O[C@H](c2ccoc2)C[C@@H]1[C@@]1(C)CCCC2(C)C(=O)OCC21` (stereo partly drawn), the TGI in assay [1], in assay [2], in assay [3], in assay [4], in assay [6] and in assay [7] was greater than 100 µM throughout. For the same molecule, the TGI in assay [8], in [9] and in assay [10] was greater than 100 µM each time.
As to `O=C1c2ccccc2C(=O)N1CCCOCc1c[nH]c(=O)[nH]c1=O`, the TGI in assay [1], in [2], in [4], in assay [5], in assay [6] and in assay [7] was greater than 100 µM each time. Moreover, the TGI in assay [8], in assay [9] and in [10] was greater than 100 µM in each case.
For the molecule `CN(C)NC(=O)/C(=C/c1ccc(Cl)cc1)NC(=O)c1ccccc1`, the TGI in assay [1], in [2], in assay [4], in [5], in assay [6] and in [7] was greater than 100 µM throughout. Also, the TGI in assay [8], in assay [9] and in assay [10] was greater than 100 µM throughout.
